Measured values as given in ChEMBL document CHEMBL2069259, “Preclinical strategy to reduce clinical hepatotoxicity using in vitro bioactivation data for >200 compounds” (Chem Res Toxicol, 2012).

What follows are compounds tested on Liver microsomes (assay: Metabolic stability in human liver microsomes assessed as GSH adduct formation at 100 uM after 90 mins by HPLC-MS analysis). Conditions: 1.5 h.
In the case of `C[C@H]1C[C@H]2[C@@H]3CCC4=CC(=O)C=C[C@]4(C)[C@@]3(Cl)[C@@H](O)C[C@]2(C)[C@@]1(O)C(=O)CO` [BECLOMETHASONE], the Stability is reported as “Stable”. `C[C@]12CC[C@H]3[C@@H](CCC4=CC(=O)CC[C@@]43C)[C@@H]1CC[C@@H]2O` [TESTOSTERONE] was tested, and the Stability was “Stable”. In the case of `Oc1ncnc2[nH]ncc12` [ALLOPURINOL], the Stability is reported as “Stable”. `CCN(CC)CCCC(C)Nc1ccnc2cc(Cl)ccc12` (stereo not given) [CHLOROQUINE] was tested, and the Stability was “Stable”. `CC(C)(O/N=C(\C(=O)N[C@@H]1C(=O)N2C(C(=O)[O-])=C(C[n+]3ccccc3)CS[C@H]12)c1csc(N)n1)C(=O)O` [CEFTAZIDIME] was tested, and the Stability was “Stable”. With `Nc1nnc(-c2cccc(Cl)c2Cl)c(N)n1` [LAMOTRIGINE] the Stability was “Stable”. In the case of `CC(C)C[C@H](N)C(=O)O` [LEUCINE], the Stability is reported as “Stable”. In the case of `COc1ccc2c3c1O[C@H]1C(=O)CC[C@H]4[C@@H](C2)N(C)CC[C@]314` [HYDROCODONE], the Stability is reported as “Stable”. With `O=c1[nH]cnc2c1ncn2[C@H]1CC[C@@H](CO)O1` [DIDANOSINE] the Stability was “Stable”. For `COc1ccc2c(c1)c(CC(=O)O)c(C)n2C(=O)c1ccc(Cl)cc1` [INDOMETHACIN], the Stability was “Stable”. For `CC1(C)NC(=O)N(c2ccc([N+](=O)[O-])c(C(F)(F)F)c2)C1=O` [NILUTAMIDE], the Stability was “Stable”. `COc1ccccc1OCC(O)CO` (stereo not given) [GUAIFENESIN] was tested, and the Stability was “Stable”. With `NC(=O)OCC(COC(N)=O)c1ccccc1` [FELBAMATE] the Stability was “Stable”. In the case of `CCC1(c2ccccc2)C(=O)NC(=O)NC1=O` [PHENOBARBITAL], the Stability is reported as “Stable”. In the case of `CCc1nn(CCCN2CCN(c3cccc(Cl)c3)CC2)c(=O)n1CCOc1ccccc1` [NEFAZODONE], the Stability is reported as “Stable”. With `CCNC(=O)[C@@H]1CCCN1C(=O)[C@H](CCCNC(=N)N)NC(=O)[C@H](CC(C)C)NC(=O)[C@@H](CC(C)C)NC(=O)[C@H](Cc1ccc(O)cc1)NC(=O)[C@H](CO)NC(=O)[C@H](Cc1c[nH]c2ccccc12)NC(=O)[C@H](Cc1c[nH]cn1)NC(=O)[C@@H]1CCC(=O)N1` [LEUPROLIDE] the Stability was “Stable”. With `O=C1CN(/N=C/c2ccc(-c3ccc([N+](=O)[O-])cc3)o2)C(O)=N1` [DANTROLENE] the Stability was “Stable”. For `CO[C@H](C(=O)[C@@H](O)[C@@H](C)O)[C@@H]1Cc2cc3cc(O[C@H]4C[C@@H](O[C@H]5C[C@@H](O)[C@H](O)[C@@H](C)O5)[C@H](O)[C@@H](C)O4)c(C)c(O)c3c(O)c2C(=O)[C@H]1O[C@H]1C[C@@H](O[C@H]2C[C@@H](O[C@H]3C[C@](C)(O)[C@H](O)[C@@H](C)O3)[C@@H](O)[C@@H](C)O2)[C@H](O)[C@@H](C)O1` [PLICAMYCIN], the Stability was “Stable”. For `CCN1CCC[C@H]1CNC(=O)c1c(OC)ccc(Br)c1OC` [REMOXIPRIDE], the Stability was “Stable”. For GENTAMICIN, the Stability was “Stable”. In the case of `CC(CCc1ccccc1)NCC(O)c1ccc(O)c(C(N)=O)c1` (stereo not given) [LABETALOL], the Stability is reported as “Stable”. In the case of `CC[C@H]1OC(=O)[C@H](C)[C@@H](O[C@H]2C[C@@](C)(OC)[C@@H](O)[C@H](C)O2)[C@H](C)[C@@H](O[C@@H]2O[C@H](C)C[C@H](N(C)C)[C@H]2O)[C@](C)(O)C[C@@H](C)CN(C)[C@H](C)[C@@H](O)[C@]1(C)O` [AZITHROMYCIN], the Stability is reported as “Stable”. `C[C@@H]1C[C@H]2[C@@H]3CCC4=CC(=O)C=C[C@]4(C)[C@@]3(F)[C@@H](O)C[C@]2(C)[C@@]1(O)C(=O)CO` [DEXAMETHASONE] was tested, and the Stability was “Stable”. With `CC(C)NCC(O)c1ccc(NS(C)(=O)=O)cc1` (stereo not given) [SOTALOL] the Stability was “Stable”. For `O=C1NC(=O)C(c2ccccc2)(c2ccccc2)N1` [PHENYTOIN], the Stability was “Stable”. With `Cc1cc2c(s1)Nc1ccccc1N=C2N1CCN(C)CC1` [OLANZAPINE] the Stability was “Stable”. In the case of `NCCC(O)(P(=O)(O)O)P(=O)(O)O` [PAMIDRONIC ACID], the Stability is reported as “Stable”. `Nc1cc(N2CCCCC2)nc(N)[n+]1[O-]` [MINOXIDIL] was tested, and the Stability was “Unstable”. In the case of `CN(Cc1cnc2nc(N)nc(N)c2n1)c1ccc(C(=O)N[C@@H](CCC(=O)O)C(=O)O)cc1` [METHOTREXATE], the Stability is reported as “Stable”. In the case of `COc1cc2nc(N3CCN(C(=O)C4CCCO4)CC3)nc(N)c2cc1OC` (stereo not given) [TERAZOSIN], the Stability is reported as “Stable”. In the case of `CCCC1O[C@@H]2C[C@H]3[C@@H]4CCC5=CC(=O)C=C[C@]5(C)[C@H]4[C@@H](O)C[C@]3(C)[C@]2(C(=O)CO)O1` (stereo not given in full) [BUDESONIDE], the Stability is reported as “Stable”. For `COc1ccc([C@@H]2Sc3ccccc3N(CCN(C)C)C(=O)[C@@H]2OC(C)=O)cc1` [DILTIAZEM], the Stability was “Stable”. For `CC1COc2c(N3CCN(C)CC3)c(F)cc3c(=O)c(C(=O)O)cn1c23` (stereo not given) [OFLOXACIN], the Stability was “Stable”. `Cc1cn([C@H]2C[C@H](N=[N+]=[N-])[C@@H](CO)O2)c(=O)[nH]c1=O` [ZIDOVUDINE] was tested, and the Stability was “Stable”. For `CC/C(=C(\c1ccccc1)c1ccc(OCCN(C)C)cc1)c1ccccc1` [TAMOXIFEN], the Stability was “Stable”. With `OCCOCCN1CCN(C(c2ccccc2)c2ccc(Cl)cc2)CC1` (stereo not given) [HYDROXYZINE] the Stability was “Stable”. With `C[C@H]1O[C@@H](O[C@H]2[C@@H](O)C[C@H](O[C@H]3[C@@H](O)C[C@H](O[C@H]4CC[C@@]5(C)[C@H](CC[C@@H]6[C@@H]5C[C@@H](O)[C@]5(C)[C@@H](C7=CC(=O)OC7)CC[C@]65O)C4)O[C@@H]3C)O[C@@H]2C)C[C@H](O)[C@@H]1O` [DIGOXIN] the Stability was “Stable”. In the case of `Cn1c(=O)c2c(ncn2C)n(C)c1=O` [CAFFEINE], the Stability is reported as “Stable”. With `CC(C)Cc1ccc(C(C)C(=O)O)cc1` (stereo not given) [IBUPROFEN] the Stability was “Stable”. With `CC(C)(N)Cc1ccccc1` [PHENTERMINE] the Stability was “Stable”. `CC(=O)[C@H]1CC[C@H]2[C@@H]3CCC4=CC(=O)CC[C@]4(C)[C@H]3CC[C@]12C` [PROGESTERONE] was tested, and the Stability was “Stable”. In the case of `C[C@]12C=CC(=O)C=C1CC[C@H]1[C@@H]3C[C@@H](O)[C@](O)(C(=O)CO)[C@@]3(C)C[C@H](O)[C@@]12F` [TRIAMCINOLONE], the Stability is reported as “Stable”. In the case of `CC(O)(P(=O)(O)O)P(=O)(O)O` [ETIDRONIC ACID], the Stability is reported as “Stable”. In the case of `OC(Cn1cncn1)(Cn1cncn1)c1ccc(F)cc1F` [FLUCONAZOLE], the Stability is reported as “Stable”. In the case of `C[C@](N)(Cc1ccc(O)cc1)C(=O)O` [METYROSINE], the Stability is reported as “Stable”. With `CN1CC[C@]23c4c5ccc(O)c4O[C@H]2C(=O)CC[C@@]3(O)[C@H]1C5` [OXYMORPHONE] the Stability was “Stable”. With `Nc1ccn([C@@H]2O[C@H](CO)[C@@H](O)[C@@H]2O)c(=O)n1` [CYTARABINE] the Stability was “Stable”. For `CN(C)CCCN1c2ccccc2Sc2ccc(Cl)cc21` [CHLORPROMAZINE], the Stability was “Stable”. With `O=C(O)c1cc(=O)c2c(OCC(O)COc3cccc4oc(C(=O)O)cc(=O)c34)cccc2o1` [CROMOLYN] the Stability was “Stable”. For `CCCCC[C@H](O)/C=C/[C@H]1[C@H](O)CC(=O)[C@@H]1CCCCCCC(=O)O` [ALPROSTADIL], the Stability was “Stable”. `O=P(O)(O)C(O)(Cc1cccnc1)P(=O)(O)O` [RISEDRONIC ACID] was tested, and the Stability was “Stable”. With `CN1CC[C@]23c4c5ccc(O)c4O[C@H]2C(=O)CC[C@H]3[C@H]1C5` [HYDROMORPHONE] the Stability was “Stable”. With `CCOC(=O)C1(c2ccccc2)CCN(C)CC1` [MEPERIDINE] the Stability was “Stable”. For `C[C@H](N)[C@H](O)c1cccc(O)c1` [METARAMINOL], the Stability was “Stable”. In the case of `COc1cc(N)c(Cl)cc1C(=O)NC1CCN(CCCOc2ccc(F)cc2)CC1OC` (stereo not given) [CISAPRIDE], the Stability is reported as “Stable”.
